Data as given in patent US11180496B2 (Daewoong Pharmaceutical Co., Ltd., priority 2017, dated 2021).

Key:
[1] = target: T1, BTK (Homo sapiens, UniProt Q06187); experiment: BTK inhibitory activity, ADP-Glo + BTK Kinase enzyme system kit (Promega); format: biochemical; details: BTK enzyme 1 ng/uL, ATP 10 uM, 15 min preincubation, luminescence, duplicate
T1 construct: purchased Promega
Procedure: (§1) The inhibitory activity against BTK and ITK of the compounds prepared in Examples above were measured as follows.
(§2) The inhibitory activity against BTK was evaluated using ‘ADP-Glo™+BTK Kinase enzyme system’ kit from Promega. […] 5 uL of substrate and 5 uL of ATP prepared at a final concentration of 10 uM were added to all wells of the plate after completion of the reaction, and allowed to react at 30° C. for 1 hour. All wells of the plate after completion of the reaction were treated with 25 uL of ADP-Glo™ reagent and reacted at 30° C. for 40 minutes. Then, 50 uL of the kinase detection buffer was applied to all wells of the plate, and then the light was blocked and reacted at 30° C. for 30 minutes. For the plate for which all reactions were completed, the luminescence was measured and the results were calculated. The evaluation was performed in duplicate. The respective values of negative and positive controls, depending on whether the enzymes were added without treatment of the compound, were determined, and IC50 was calculated based on the values.

[2] = target: T2, ITK (Homo sapiens, UniProt Q08881); experiment: ITK inhibitory activity, ADP-Glo + ITK Kinase enzyme system kit (Promega); format: biochemical; details: ITK enzyme 0.4 ng/uL, ATP 25 uM, 15 min preincubation, luminescence, duplicate
T2 construct: purchased Promega
T2 sequence (Q08881 1-620): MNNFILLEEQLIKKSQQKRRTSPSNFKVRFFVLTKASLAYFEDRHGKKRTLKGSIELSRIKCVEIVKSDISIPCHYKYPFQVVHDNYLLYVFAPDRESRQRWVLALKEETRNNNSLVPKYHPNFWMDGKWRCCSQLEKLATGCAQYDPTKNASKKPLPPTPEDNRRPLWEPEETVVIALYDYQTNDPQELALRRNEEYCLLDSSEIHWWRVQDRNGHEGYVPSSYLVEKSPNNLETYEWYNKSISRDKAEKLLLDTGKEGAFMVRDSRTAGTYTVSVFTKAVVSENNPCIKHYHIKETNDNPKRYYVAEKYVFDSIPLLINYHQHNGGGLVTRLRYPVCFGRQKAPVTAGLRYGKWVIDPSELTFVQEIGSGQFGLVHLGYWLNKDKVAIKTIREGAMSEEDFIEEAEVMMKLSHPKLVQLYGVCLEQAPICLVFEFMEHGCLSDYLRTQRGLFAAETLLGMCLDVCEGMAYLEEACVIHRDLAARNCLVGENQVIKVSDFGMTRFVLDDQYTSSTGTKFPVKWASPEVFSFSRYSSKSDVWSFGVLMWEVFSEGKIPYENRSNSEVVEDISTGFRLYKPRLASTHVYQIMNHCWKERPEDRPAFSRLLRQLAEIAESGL
Procedure: as §1
as §2, with “ITK” for “BTK”, “‘ADP-Glo™+ITK” for “‘ADP-Glo™+BTK”, “25” for “10”

T1 sequence (Q06187 whole entry): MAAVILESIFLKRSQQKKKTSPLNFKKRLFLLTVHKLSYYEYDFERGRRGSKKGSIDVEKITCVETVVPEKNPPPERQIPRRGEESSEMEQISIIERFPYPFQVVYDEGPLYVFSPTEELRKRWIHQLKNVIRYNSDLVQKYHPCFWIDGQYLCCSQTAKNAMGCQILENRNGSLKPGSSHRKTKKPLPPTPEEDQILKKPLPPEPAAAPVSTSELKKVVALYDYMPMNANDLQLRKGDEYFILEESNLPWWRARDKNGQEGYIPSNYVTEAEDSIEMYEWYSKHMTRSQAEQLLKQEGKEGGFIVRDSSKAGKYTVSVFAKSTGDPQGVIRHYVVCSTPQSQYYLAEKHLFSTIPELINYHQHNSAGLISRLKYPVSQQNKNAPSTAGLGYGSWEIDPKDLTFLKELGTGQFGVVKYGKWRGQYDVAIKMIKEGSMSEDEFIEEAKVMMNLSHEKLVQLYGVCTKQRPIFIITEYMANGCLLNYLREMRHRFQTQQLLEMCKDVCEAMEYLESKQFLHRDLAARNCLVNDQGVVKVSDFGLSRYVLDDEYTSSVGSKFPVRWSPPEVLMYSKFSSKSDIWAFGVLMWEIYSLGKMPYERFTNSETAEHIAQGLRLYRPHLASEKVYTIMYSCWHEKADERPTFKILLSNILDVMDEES

| Structure (SMILES) | IC50 [1] [µM] | IC50 [2] [µM] |
| --- | --- | --- |
| C=CC(=O)N1CCCC(n2nc(-c3ccc(Oc4ccccc4)cc3)c3c(N)nccc32)C1 (stereo not drawn) [Example 1, 1-(3-(4-amino-3-(4-phenoxyphenyl)-1H-pyrazolo[4,3-c]pyridin-1-yl)piperidin-1-yl)prop-2-en-1-one] | 0.0014 | 0.0377 |
| C=CC(=O)N1CCC(n2nc(-c3ccc(Oc4ccccc4)cc3)c3c(N)nccc32)CC1 [Example 3, 1-(4-(4-amino-3-(4-phenoxyphenyl)-1H-pyrazolo[4,3-c]pyridin-1-yl)piperidin-1-yl)prop-2-en-1-one] | 0.0027 | > 1 |
| C#CC(=O)N1CCC(n2nc(-c3ccc(Oc4ccccc4)cc3)c3c(N)nccc32)CC1 [Example 4, 1-(4-(4-amino-3-(4-phenoxyphenyl)-1H-pyrazolo[4,3-c]pyridin-1-yl)piperidin-1-yl)prop-2-yn-1-one] | 0.0055 | 0.277 |
| C=CC(=O)N1CCCC(n2nc(-c3ccc(Oc4ccccc4)cc3)c3c(N)ncc(-c4cnn(C)c4)c32)C1 (stereo not drawn) [Example 7, 1-(3-(4-amino-7-(1-methyl-1H-pyrazol-4-yl)-3-(4-phenoxyphenyl)-1H-pyrazolo[4,3-c]pyridin-1-yl)piperidin-1-yl)prop-2-en-1-one] | 0.003 | 0.0364 |
| C=CC(=O)N1CC2CC1C(n1nc(-c3ccc(Oc4ccccc4)cc3)c3c(N)ncc(-c4cnn(C)c4)c31)C2 (stereo not drawn) [Example 8, 1-(6-(4-amino-7-(1-methyl-1H-pyrazol-4-yl)-3-(4-phenoxyphenyl)-1H-pyrazolo[4,3-c]pyridin-1-yl)-2-azabicyclo[2.2.1]heptan-2-yl)prop-2-en-1-one] | 0.0073 | > 0.5 |
| C=CC(=O)N1CCCC(n2nc(-c3ccc(Oc4ccccc4)cc3)c3c(N)ncc(Br)c32)C1 (stereo not drawn) [Example 10, 1-(3-(4-amino-7-bromo-3-(4-phenoxyphenyl)-1H-pyrazolo[4,3-c]pyridin-1-yl)piperidin-1-yl)prop-2-en-1-one] | 0.0021 | 0.0108 |
| C=CC(=O)N1CCCC(n2nc(-c3ccc(Oc4ccccc4)cc3)c3c(N)ncc(-c4ccccc4)c32)C1 (stereo not drawn) [Example 11, 1-(3-(4-amino-3-(4-phenoxyphenyl)-7-phenyl-1H-pyrazolo[4,3-c]pyridin-1-yl)piperidin-1-yl)prop-2-en-1-one] | 0.0114 | 0.224 |
| C=CC(=O)N1CCC(n2nc(-c3ccc(Oc4ccccc4)cc3)c3c(N)ncc(I)c32)CC1 [Example 12, 1-(4-(4-amino-7-iodo-3-(4-phenoxyphenyl)-1H-pyrazolo[4,3-c]pyridin-1-yl)piperidin-1-yl)prop-2-en-1-one] | 0.0077 | > 1 |
| C=CC(=O)N1CCC(n2nc(-c3ccc(Oc4ccccc4)cc3)c3c(N)ncc(-c4cnn(C)c4)c32)CC1 [Example 13, 1-(4-(4-amino-7-(1-methyl-1H-pyrazol-4-yl)-3-(4-phenoxyphenyl)-1H-pyrazolo[4,3-c]pyridin-1-yl)piperidin-1-yl)prop-2-en-1-one] | 0.0051 | > 1 |
| C=CC(=O)N1CCC[C@@H](n2nc(-c3ccc(C(=O)Nc4ccccn4)cc3)c3c(N)nccc32)C1 [Example 18, (R)-4-(1-(1-acryloylpiperidin-3-yl)-4-amino-1H-pyrazolo[4,3-c]pyridin-3-yl)-N-(pyridin-2-yl)benzamide] | 0.001 | 0.0264 |
| C=CC(=O)N1CCC[C@@H](n2nc(-c3ccc(C(=O)Nc4ccccn4)cc3)c3c(N)ncc(Br)c32)C1 [Example 20, (R)-4-(1-(1-acryloylpiperidin-3-yl)-4-amino-7-bromo-1H-pyrazolo[4,3-c]pyridin-3-yl)-N-(pyridin-2-yl)benzamide] | 0.0152 | > 1 |
| C=CC(=O)N1CCC[C@@H](n2nc(-c3ccc(C(=O)Nc4ccccc4)cc3)c3c(N)nccc32)C1 [Example 22, (R)-4-(1-(1-acryloylpiperidin-3-yl)-4-amino-1H-pyrazolo[4,3-c]pyridin-3-yl)-N-phenyl benzamide] | 0.0025 | 0.131 |
| C=CC(=O)N1CCC[C@@H](n2nc(-c3ccc(C(=O)Nc4ccccc4)cc3)c3c(N)ncc(I)c32)C1 [Example 25, (R)-4-(1-(1-acryloylpiperidin-3-yl)-4-amino-7-iodo-1H-pyrazolo[4,3-c]pyridin-3-yl)-N-phenyl benzamide] | 0.0015 | 0.0395 |

More lines, in order of falling IC50 [1], values ahead:

| IC50 [1] [µM] | IC50 [2] [µM] | Structure (SMILES) |
| --- | --- | --- |
| 0.0299 | 0.288 | C=CC(=O)N1CCCC(n2nc(-c3ccc(Oc4ccccc4)cc3)c3c(N)ncc(Cc4ccccc4)c32)C1 (stereo not drawn) [Example 6, 1-(3-(4-amino-7-benzyl-3-(4-phenoxyphenyl)-1H-pyrazolo[4,3-c]pyridin-1-yl)piperidin-1-yl)prop-2-en-1-one] |
| 0.0107 | > 1 | C=CC(=O)N1CCC[C@@H](n2nc(-c3ccc(C(=O)Nc4ccccn4)cc3)c3c(N)ncc(I)c32)C1 [Example 21, (R)-4-(1-(1-acryloylpiperidin-3-yl)-4-amino-7-iodo-1H-pyrazolo[4,3-c]pyridin-3-yl)-N-(pyridin-2-yl)benzamide] |
| 0.0067 | 0.0195 | C=CC(=O)N1CCCC(n2nc(-c3ccc(Oc4ccccc4)cc3)c3c(N)ncc(I)c32)C1 (stereo not drawn) [Example 5, 1-(3-(4-amino-7-iodo-3-(4-phenoxyphenyl)-1H-pyrazolo[4,3-c]pyridin-1-yl)piperidin-1-yl)prop-2-en-1-one] |
| 0.0041 | 0.0384 | C=CC(=O)N1CCCC(n2nc(-c3ccc(Oc4ccccc4)cc3)c3c(N)ncc(/C=C/c4ccc(F)cc4)c32)C1 (stereo not drawn) [Example 14, (E)-1-(3-(4-amino-7-(4-fluorostyryl)-3-(4-phenoxyphenyl)-1H-pyrazolo[4,3-c]pyridin-1-yl)piperidin-1-yl)prop-2-en-1-one] |
| 0.0037 | > 0.5 | C=CC(=O)N1CCC(n2nc(-c3ccc(Oc4ccccc4)cc3)c3c(N)ncc(/C=C/c4ccc(F)cc4)c32)CC1 [Example 15, (E)-1-(4-(4-amino-7-(4-fluorostyryl)-3-(4-phenoxyphenyl)-1H-pyrazolo[4,3-c]pyridin-1-yl)piperidin-1-yl)prop-2-en-1-one] |
| 0.0035 | 0.0157 | C#CC(=O)N1CCCC(n2nc(-c3ccc(Oc4ccccc4)cc3)c3c(N)nccc32)C1 (stereo not drawn) [Example 2, 1-(3-(4-amino-3-(4-phenoxyphenyl)-1H-pyrazolo[4,3-c]pyridin-1-yl)piperidin-1-yl)prop-2-yn-1-one] |
| 0.0017 | 0.0078 | C=CC(=O)N1CCC[C@@H](n2nc(-c3ccc(C(=O)Nc4ccccn4)cc3)c3c(N)ncc(Cl)c32)C1 [Example 19, (R)-4-(1-(1-acryloylpiperidin-3-yl)-4-amino-7-chloro-1H-pyrazolo[4,3-c]pyridin-3-yl)-N-(pyridin-2-yl)benzamide] |
| 0.0015 | 0.0113 | C=CC(=O)N1CCCC(n2nc(-c3ccc(Oc4ccccc4)cc3)c3c(N)ncc(Cl)c32)C1 (stereo not drawn) [Example 9, 1-(3-(4-amino-7-chloro-3-(4-phenoxyphenyl)-1H-pyrazolo[4,3-c]pyridin-1-yl)piperidin-1-yl)prop-2-en-1-one] |
| 0.0012 | 0.048 | C=CC(=O)N1CCC[C@@H](n2nc(-c3ccc(C(=O)Nc4ccccc4)cc3)c3c(N)ncc(Cl)c32)C1 [Example 23, (R)-4-(1-(1-acryloylpiperidin-3-yl)-4-amino-7-chloro-1H-pyrazolo[4,3-c]pyridin-3-yl)-N-phenyl benzamide] |
| 0.0012 | 0.0368 | C=CC(=O)N1CCC[C@@H](n2nc(-c3ccc(C(=O)Nc4ccccc4)cc3)c3c(N)ncc(Br)c32)C1 [Example 24, (R)-4-(1-(1-acryloylpiperidin-3-yl)-4-amino-7-bromo-1H-pyrazolo[4,3-c]pyridin-3-yl)-N-phenyl benzamide] |
| 0.001 | 0.0027 | C=CC(=O)N1CCC[C@@H](n2nc(-c3ccc(Oc4ccccc4)cc3)c3c(N)ncc(I)c32)C1 [Example 16, (R)-1-(3-(4-amino-7-iodo-3-(4-phenoxyphenyl)-1H-pyrazolo[4,3-c]pyridin-1-yl)piperidin-1-yl)prop-2-en-1-one] |
